In PubChem BioAssay (NCI) one finds TGI and GI50 data, which are given here for 19 molecules.

Broadly, the TGI is the concentration giving total growth inhibition. As a reminder, the GI50 is the concentration at which growth is held to half of that of the control.

Values joined by “and” are separate entries in the source; they are usually repeats but may differ in a detail not shown here. Equal values may be shown once.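 Five compound concentrations were applied to cells in 96-well plates for 48 hours; endpoints were derived by simple linear interpolation of the resulting dose-response curve. At the GI50, growth is halved. At the TGI there is no net growth.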

Assay in all cases: DTP human tumour cell line panel, 48 h
In test [1] the test system is UACC-257 melanoma.
The subject of test [2] is MALME-3M melanoma.
Test [3] relates to COLO 205 colon.
Test [4] relates to NCI-H226 lung.
For test [5], the system named is OVCAR-5 ovarian.
Test [6] concerns NCI-H460 lung.
The subject of test [7] is HCC-2998 colon.
For test [8], the system named is UACC-62 melanoma.
In test [9] the test system is SR leukemia.
Test [10] concerns SK-OV-3 ovarian.

With `O=C(CCCCCCCCCCc1ccccc1)c1c(O)cccc1O`, the TGI came to 38.8 µM in test [1]; 34.3 µM in test [2]; 56.5 µM in [3]; 41.8 µM in test [4]; 45.2 µM in [5]; 39.6 µM in test [6]. Besides, the TGI was 44.3 µM in [7], 36.2 µM in [8], 63.4 µM in [9] and over 100 µM in test [10].
For `COc1cc(C2C3=C(COC3=O)N(CCO)c3cc4c(cc32)CCC4)cc(OC)c1O` (stereo not drawn), the TGI in [1] was over 32.5 µM; in [2], over 32.5 µM; in test [3] it was 2.16 µM; in test [4], over 32.5 µM; in test [5] it was over 32.5 µM; in test [6], 6.65 µM. The TGI in test [7] was 1.29 µM; in test [8], over 32.5 µM; in [9] it was over 32.5 µM; in test [10], over 32.5 µM. The GI50 was 104 nM in test [2]; 229 nM in test [3]; 3.75 µM in [4]; 3180 nM in test [5]; 114 nM in [6]; 221 nM in test [7]. Besides, the results for the GI50 in test [8], in test [9] and in test [10] were 134 nM, 192 nM and 0.168 µM, respectively.
On to `Cc1nn(-c2ccccc2)c2c1C1C(=C(c3ccc(Cl)cc3)N2)C(=O)Nc2ccccc21` (stereo not drawn), for which the GI50 in test [1] was 4.33 µM; in [2] it was 2680 nM; in test [3], 2490 nM; in test [4] it was 7.34 µM; in [5], 2270 nM; in test [6], 3170 nM. The GI50 in test [7] was 3430 nM; in test [8] it was 3560 nM; in test [9], 2150 nM; in test [10] it was 6.43 µM. In addition, the TGI in [1] is 25.4 µM; in [2], 21.2 µM; in test [3], 5.63 µM; in test [4], 36 µM; in test [5] it was 7.68 µM; in [6], 10.2 µM. In addition, the TGI was 10.6 µM in test [7], 15 µM in test [8], 5.58 µM in [9] and over 100 µM in test [10].
`CC(C)(C)n1cc(-c2ccnc(NCCNS(=O)(=O)c3ccc(Br)cc3)c2)c(-c2cccc(O)c2)n1`: the GI50 in test [1] was 1.93 µM; in test [2], 1670 nM; in [3], 1490 nM; in test [4] it was 2.07 µM; in [5], 1780 nM; in test [6] it was 1930 nM. The GI50 in test [7] was 1840 nM; in [8], 1570 nM; in [9], 286 nM; in test [10], 2.29 µM. Also, the TGI in [1] amounted to 4.76 µM; in [2], 3.34 µM; in [3] it was 3.13 µM; in test [4], 5.32 µM; in [5] it was 3.53 µM; in test [6], 3.71 µM. The TGI came to 3.53 µM in [7], 3.08 µM in test [8], 6.16 µM in [9] and 6.1 µM in [10].
For the molecule `Cc1cc(N(CCC#N)S(=O)(=O)c2ccccc2)ccc1C=O`, the TGI in test [1], in [2], in test [3], in test [4], in test [5] and in test [6] was over 100 µM each time. The TGI in test [7], in test [8], in test [9] and in test [10] was over 100 µM each time.
Consider `COc1cc2ccn3c4cc(OC)c(OC)cc4cc3c2cc1OC`, for which the TGI in test [1], in test [2], in [3], in test [4], in test [5] and in [6] was over 100 µM each time. Besides, the TGI in [7], in test [8], in [9] and in test [10] was over 100 µM in each case.
As for `Cn1c(=O)n(-c2ccc(C(C)(C)C#N)cc2)c2c3cc(-c4cnc5ccccc5c4)ccc3ncc21`, the GI50 was < 0.0105 µM and 0.00672 µM and < 0.01 µM in test [1]; 5.76 nM and < 10 nM in [2]; 23.1 nM and 5.93 nM in [3]; under 0.001 µM in test [4]; 21.3 nM and 7.59 nM and 15.9 nM in test [5]; < 10 nM and 5.81 nM in test [6]. For the same molecule, the GI50 in test [7] was < 10 nM and 6.1 nM; in test [8] it was 11.2 nM and 4.94 nM and < 10 nM; in test [9], 38.6 nM and 5.51 nM and < 13.7 nM; in test [10], < 0.01 µM and 0.00494 µM. Besides, the TGI in [1] was 0.0493 µM and 0.436 µM and 0.0457 µM; in test [2] it was 0.04 µM and 0.0568 µM; in test [3], 0.702 µM and 0.938 µM; in test [5] it was over 100 µM; in [6], over 100 µM; in test [7] it was over 100 µM. For the same molecule, the TGI in test [8] was 0.0809 µM and 0.0513 µM and 0.0445 µM; in test [9], over 100 µM; in test [10] it was 0.0442 µM and 0.0549 µM and 0.0293 µM.
Turning to `CC1CCC(O)C(C(O)CC2CC(=O)N(C)C(=O)C2)C1` (stereo not drawn), the TGI in test [1], in test [2], in test [3], in test [4], in [5] and in test [6] was over 100 µM in each case. The TGI in [7], in test [8], in test [9] and in [10] was over 100 µM throughout.
For the molecule `Clc1ccc2c(Cl)ncnc2c1`, the TGI in test [1], in test [2], in test [3], in test [4], in [5] and in test [6] was over 100 µM in each case. Also, the TGI in test [7], in test [8], in [9] and in test [10] was over 100 µM throughout.
Take `COC(=O)c1c(C)oc2ccc(OC(C)=O)cc12`: the TGI in [1], in test [2], in test [3], in test [4], in test [5] and in [6] was over 100 µM in each case. The TGI in test [7], in test [8], in [9] and in test [10] was over 100 µM each time.
Turning to `Brc1ccc2c(c1)C1(c3cc(Br)ccc3-2)c2cc(Br)ccc2-c2ccc(Br)cc21`, the TGI in test [1], in test [2], in test [3], in [4], in test [5] and in [6] was over 100 µM in each case. Besides, the TGI in test [7], in test [8], in [9] and in test [10] was over 100 µM in each case.
Consider `COc1cccc(-c2nn(-c3ccccc3)cc2-c2ccnc(NCCNC(=O)Nc3ccc(Cl)c(Cl)c3)c2)c1`, for which the GI50 is 3.63 µM in test [1]; 1890 nM in test [2]; 2070 nM in test [3]; 3.63 µM in test [4]; 2250 nM in test [5]; 1880 nM in [6]. The GI50 in [7] was 1880 nM; in [8], 1840 nM; in [9], 1510 nM; in test [10], 4.06 µM. In addition, the TGI was 20.3 µM in test [1]; 4.66 µM in test [2]; 4.44 µM in test [3]; 18.7 µM in [4]; 10.1 µM in test [5]; 4.33 µM in test [6]. The TGI in test [7] worked out at 3.78 µM; in test [8] it was 4.51 µM; in [9], 6.02 µM; in test [10], 14.4 µM.
Consider `CC1=CC2=C(C)C3(CC3)[C@@](C)(O)C(=O)C2=C1`, for which the TGI turned out to be 0.578 µM in test [1]; 0.424 µM in test [2]; 0.584 µM in [3]; 0.492 µM in test [4]; 0.454 µM in test [5]; 0.431 µM in test [6]. Moreover, the TGI in test [7] is 0.406 µM; in test [8], 0.44 µM; in test [9], over 1 µM; in test [10], 0.799 µM.
For `Nc1ncnc2occ(-c3ccc(NC(=O)Nc4cc(C(F)(F)F)cc(C(F)(F)F)c4)cc3)c12`, the GI50 is 3.27 µM in [1]; 4090 nM in [2]; 4230 nM in test [3]; 0.584 µM in [4]; 4390 nM in [5]; 3100 nM in test [6]. For the same molecule, the GI50 is 4630 nM in test [7], 3260 nM in [8], 2030 nM in [9] and 3.37 µM in test [10]. For the same molecule, the TGI in test [1] was found to be 6.69 µM; in [2], 9.27 µM; in test [3], 7.96 µM; in [4], 4.53 µM; in [5], 8.99 µM; in test [6], 6.7 µM. In addition, the TGI is 8.27 µM in [7], 6.68 µM in [8], 15.2 µM in test [9] and 6.67 µM in [10].
In the case of `CCOP(=O)(OCC)/C(C#N)=C\c1cccc2ccccc12`, the TGI in test [1] is over 100 µM; in [2], over 100 µM; in test [3] it was over 100 µM; in [4] it was over 73.8 µM; in test [5], over 100 µM; in test [6] it was over 100 µM. Further, the TGI in test [7] is over 100 µM; in [8], over 100 µM; in [9] it was over 75.1 µM; in [10], over 100 µM.
In the case of `O=C(N[C@@H]1CCCc2ccccc21)[C@H](CCC(=O)N1CCN(C2CCCCC2)CC1)N1C(=O)[C@@H](N2C(=O)OC[C@@H]2c2ccccc2)[C@H]1/C=C/c1ccccc1`, the GI50 was 1.49 µM in test [1]; 1630 nM in test [2]; 1590 nM in test [3]; 4.29 µM in test [4]; 4010 nM in test [5]; 2650 nM in test [6]. Also, the GI50 is 2270 nM in test [7], 1860 nM in test [8], 2680 nM in [9] and 3.02 µM in [10]. In addition, the TGI in test [1] worked out at 3.36 µM; in test [2] it was 3.15 µM; in [3], 3.52 µM; in test [4], 18.4 µM; in test [5], 47.5 µM; in test [6] it was 7.23 µM. Besides, the TGI in test [7] was 5.37 µM; in [8], 3.93 µM; in [9] it was over 100 µM; in [10], 14 µM.
With `COc1ccc2nc3ccc(OC)cc3c(SCCCN)c2c1`, the GI50 in test [1] is 15.6 µM; in [2], 1600 nM; in [3], 1420 nM; in [4], 19.2 µM; in [5], 13500 nM; in [6], 8660 nM. The GI50 in test [7] was 13200 nM; in test [8] it was 12000 nM; in [9], 1540 nM; in [10], 14.2 µM. The TGI in test [1] was 29.8 µM; in test [2], 10.5 µM; in [3], 2.97 µM; in test [4], 65.7 µM; in test [5], 28.3 µM; in test [6] it was 31.6 µM. Moreover, the TGI in test [7] was found to be 30.7 µM; in [8], 39.4 µM; in [9], 3.64 µM; in test [10], 29.9 µM.
`Oc1cc2cc(-c3ccccc3)[nH]c2c2ccccc12`: the TGI is 32.5 µM in test [1]; 41.6 µM in test [2]; over 37.8 µM in test [3]; over 100 µM in [4]; over 100 µM in test [5]; 72.1 µM in test [6]. Also, the TGI in [7] is over 100 µM; in test [8], 29.4 µM; in test [9] it was over 93.6 µM; in test [10] it was over 100 µM.
On to `COc1ccccc1C(=O)c1cnc(NC2CCN(S(C)(=O)=O)CC2)nc1N`, for which the GI50 in [1] is 11.6 µM; in [2], over 16400 nM; in [3] it was 4370 nM; in [4], 4.62 µM; in test [5], 4920 nM; in test [6] it was 2850 nM. Further, the GI50 is 13000 nM in test [7], 6680 nM in [8], 2000 nM in test [9] and over 25 µM in [10]. Moreover, the TGI in test [1] is over 25 µM; in test [2] it was over 25 µM; in [3], over 15.4 µM; in test [4] it was over 23.1 µM; in test [5], over 25 µM; in test [6], over 25 µM. In addition, the TGI in test [7] is over 25 µM; in [8] it was over 25 µM; in test [9], over 19.5 µM; in test [10], over 25 µM.
